Experimental data published in patent US9127016B2, “Small molecule inhibitors of Dusp6 and uses therefor” (University of Pittsburgh—Of the Commonwealth System of …, priority 2009, dated 2015).

Tests used:
[1] = system: Spry4; assay: Zebrafish mRNA microinjection, rescue of sef expression, spry4; type: in vivo; details: 5 μM BCI, shield stage
Description: (§1) dusp6 and XFD mRNA for microinjection studies were generated as previously described (Tsang, M. et al. Development 131, 2769-79 (2004)). Both Dusp5 and Spry4 ORFs were amplified by RT-PCR from 24 hpf zebrafish with the following primers: […]
(§2) Amplified PCR products were subcloned into pCS2+, sequenced verified and mRNAs were synthesized as described previously. Embryos were injected with 500 pg mRNA at the 1-2 cell stage, treated with 5 μM BCI at the 1000-cell stage and fixed at shield stage for in situ hybridization.
(§3) In situ hybridization experiments were carried out as described previously (Kudoh, T. et al. Genome Res 11, 1979-87 (2001)). The probes eng3, krox20, sef, dusp6, gata4, nkx2.5, cmlc2, vmhc, scl, etsrp and hand2 were generated with a RNA labeling kit (Roche) (Tsang, M. et al. Development 131, 2769-79 (2004); Chen, J. N. et al. Development 122, 3809-16 (1996); Ekker, M., et al. Development 116, 1001-10 (1992); Liao, E. C. et al. Genes Dev 12, 621-6 (1998); Oxtoby, E. et al. Nucleic Acids Res 21, 1087-95 (1993); Pham, V. N. et al. Dev Biol 303, 772-83 (2007); Tsang, M., et al. Nat Cell Biol 4, 165-9 (2002); Yelon, D., et al. Dev Biol 214, 23-37 (1999); and Yelon, D. et al. Development 127, 2573-82 (2000)). The double fluorescent in situ hybridization protocol was described by Schoenbeck et al. (Dev Cell 13, 254-67 (2007)). […]

[2] = system: cardiac progenitors / heart size; assay: Cardiac progenitor and heart size analysis in treated embryos; type: in vivo, zebrafish
Description: In situ hybridization experiments were carried out as described previously (Kudoh, T. et al. Genome Res 11, 1979-87 (2001)). The probes eng3, krox20, sef, dusp6, gata4, nkx2.5, cmlc2, vmhc, scl, etsrp and hand2 were generated with a RNA labeling kit (Roche) (Tsang, M. et al. Development 131, 2769-79 (2004); Chen, J. N. et al. Development 122, 3809-16 (1996); Ekker, M., et al. Development 116, 1001-10 (1992); Liao, E. C. et al. Genes Dev 12, 621-6 (1998); Oxtoby, E. et al. Nucleic Acids Res 21, 1087-95 (1993); Pham, V. N. et al. Dev Biol 303, 772-83 (2007); Tsang, M., et al. Nat Cell Biol 4, 165-9 (2002); Yelon, D., et al. Dev Biol 214, 23-37 (1999); and Yelon, D. et al. Development 127, 2573-82 (2000)). The double fluorescent in situ hybridization protocol was described by Schoenbeck et al. (Dev Cell 13, 254-67 (2007)). Fluorescent in situ hybridizations were visualized by confocal microscopy. Single optical sections and z-series of flat-mounted stained embryos were collected with a confocal laser scan head (SP5, Leica Microsystems, Inc.) mounted on an inverted compound microscope (DM16000, Leica Microsystems, Inc.). Images were scanned and compiled with NIH ImageJ software (rsb.info.nih.gov/ij/).
The identification of a small molecule that blocks the biologically relevant activity of Dusp6 and Dusp1 allowed us to probe the requirement for these enzymes in later developmental processes. Given that BCI could potentially block related members of the Dusp family, we examined the expression of other dusps in zebrafish. Detailed expression analyses of several dusps have been described and include dusp4, dusp1, dusp7, dusp5, and dusp22a (Qian, F. et al. Dev Dyn 233, 1163-72 (2005); Sumanas, S., et al. Blood 106, 534-41 (2005); Brown, J. L. et al. Proc Natl Acad Sci USA 105, 12337-42 (2008); Kudoh, T. et al. Genome Res 11, 1979-87 (2001); and Thisse, B. et al. Fast Release Clones: A High Throughput Expression Analysis. ZFIN Direct Data Submission (zfin.org) (2004)). Of these only Dusp6 functions as a feedback regulator of FGF/MAPK/ERK signaling and is expressed within the anterior lateral plate mesoderm, supporting the idea that this phosphatase plays a role in heart development. In early embryogenesis, Dusp6 is an important regulator of FGF signaling; knock-down with antisense morpholinos results in embryo polarity defects, which precludes the study of Dusp6′s role in later development (Tsang, M. et al. Development 131, 2769-79 (2004)). In contrast, small molecules permit the analysis at later stages of development due to rapid and transient perturbation of their biological targets. Using BCI as a chemical probe, we asked how inhibiting Dusp6 activity would alter patterning and formation of the heart. The zebrafish heart develops from a small group of cardiac progenitor cells that can be identified by 5 hpf within the mesodermal layer of the blastula stage embryo. During gastrulation, cardiac progenitor cells undergo cellular migration to form two bilateral populations known as the anterior lateral plate mesoderm (ALPM) located just behind the MHB, and begin to express the transcription factors nkx2.5 and gata4. Studies have described a role for Fgf8 in zebrafish heart development. In embryos harboring an fgf8 mutation, both atria and ventricular cells are reduced (Marques, S. R., et al. Dev Biol 321, 397-406 (2008) and Reifers, F., et al. Development 127, 225-35 (2000)). In agreement with the notion that FGF signaling plays a role in stipulating heart size, ectopic expression of a constitutively activated FGF receptor (Fgfrl) during somitogenesis stages expanded cardiac tissue (Marques, S. R., et al. Dev Biol 321, 397-406 (2008)). Therefore we used BCI to test if Dusp6 limits FGF signaling and restricts cardiac progenitors and heart organ size. In BCI-treated embryos a caudal expansion of gata4 in the ALPM was observed (compare FIG. 14a & a′ to 14b & b′; 81%, n=16). […]

[3] = target: T1, Dusp6 (Danio rerio, UniProt Q7T2L8); assay: Zebrafish mRNA microinjection, rescue of sef expression, dusp6; type: in vivo; details: 5 μM BCI, shield stage
T1 construct: expressed in transfected cells; host or cells: zebrafish embryos, 500 pg mRNA injected at the 1-2 cell stage
T1 sequence (Q7T2L8 1-382): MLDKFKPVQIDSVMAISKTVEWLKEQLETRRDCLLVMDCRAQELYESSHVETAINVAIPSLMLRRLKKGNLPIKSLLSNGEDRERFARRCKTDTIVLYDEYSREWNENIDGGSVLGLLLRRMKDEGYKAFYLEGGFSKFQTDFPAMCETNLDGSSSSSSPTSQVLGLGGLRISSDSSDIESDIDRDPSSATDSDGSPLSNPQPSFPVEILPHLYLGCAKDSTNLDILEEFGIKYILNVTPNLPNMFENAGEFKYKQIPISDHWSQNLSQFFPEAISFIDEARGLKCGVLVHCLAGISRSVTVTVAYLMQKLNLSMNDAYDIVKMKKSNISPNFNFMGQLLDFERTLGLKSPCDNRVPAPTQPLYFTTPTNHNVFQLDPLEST
Description: as §1, §2, §3

Structure (SMILES): O=C1/C(=C/c2ccccc2)C(NC2CCCCC2)c2ccccc21 (centres unmarked) [Compound 3, (E)-2-benzylidene-3-(cyclohexylamino)-2,3-dihydro-1H-inden-1-one]
- reversal of effects of spry4 mRNA on sef expression [1]: did not reverse
- embryos with expansion of cardiac hand2 expression ([2]; 10-somite stage, n=19): 32%
- embryos with increase in cmlc2 positive cells ([2]; 18-somite stage, n=16): 81%
- embryos with expanded nkx2.5 cardiac progenitor pools ([2]; n=11): 91%
- embryos with caudal expansion of gata4 in the ALPM ([2]; n=16, 10-somite stage): 81%
- cardiac tissue in larvae ([2]; treated at 40% epiboly, washout next day, 56 hpf): marked expansion in cardiac tissue
- embryos with marked reduction in scl expression ([2]; treated from the 1-somite stage, n=15): 93%
- sef expression in dusp6-injected embryos [3]: rescued sef expression to control levels or higher
